Results from patent US20200354426A1 (MEDIMMUNE LIMITED, priority 2016, published 2020).
“And” between values parts separate entries of the source, which are not always exact repeats. Equal values may be shown once. Numbered stars: 1 amine (or outer) side, 2 acyl side, 3 side chain; on linkers, the order of the positions; unused ones are H or OH. Side chains are listed from the residue outwards. Peptide text beside a SMILES is read from it. * marks the point of attachment. γGlu = O=C(O)[C@H](CCC(=O)[*:2])N[*:1]; Palmitoyl = CCCCCCCCCCCCCCCC(=O)*; Ahx = NCCCCCC(=O)O

Experiments:
Experiment in all cases: cAMP activity assay in assay medium (assay 1)
Format in all cases: cell-based
Human GIPr = target: T1, Human GIPr (Homo sapiens, UniProt P48546); conditions: assay medium; Table 4; read-out: hGIPR EC50
T1 construct: expressed in transfected cells
T1 sequence (P48546 22-466): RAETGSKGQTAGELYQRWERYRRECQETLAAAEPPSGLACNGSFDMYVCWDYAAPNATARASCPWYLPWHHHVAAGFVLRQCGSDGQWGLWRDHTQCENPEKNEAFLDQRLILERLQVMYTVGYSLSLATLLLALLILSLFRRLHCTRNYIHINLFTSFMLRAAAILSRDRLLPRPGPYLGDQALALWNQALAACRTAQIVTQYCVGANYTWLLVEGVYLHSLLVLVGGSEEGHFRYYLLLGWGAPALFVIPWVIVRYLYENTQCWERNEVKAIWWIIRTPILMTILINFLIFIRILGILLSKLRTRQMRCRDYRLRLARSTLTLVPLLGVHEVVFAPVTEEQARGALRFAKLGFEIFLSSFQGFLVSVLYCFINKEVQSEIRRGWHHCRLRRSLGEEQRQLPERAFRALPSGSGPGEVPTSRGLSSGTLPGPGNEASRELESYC
From the text: (§1) Biological Activity of Peptides in Cell-Based cAMP Activity Assay (Assay 1):
(§2) All sample dilutions were made in duplicate.

Human GlucR = target: T2, Human GlucR (Homo sapiens, UniProt P47871); conditions: assay medium; Table 4; read-out: hGlucR EC50
T2 construct: expressed in transfected cells
From the text: as §1, §2

Human GLP1R = Human GLP1R (Homo sapiens, UniProt P43220); set-up: expressed in transfected cells; conditions: assay medium; Table 4; read-out: hGLP1R EC50
From the text: as §1, §2

Sequence of Human GLP1R (P43220 24-463): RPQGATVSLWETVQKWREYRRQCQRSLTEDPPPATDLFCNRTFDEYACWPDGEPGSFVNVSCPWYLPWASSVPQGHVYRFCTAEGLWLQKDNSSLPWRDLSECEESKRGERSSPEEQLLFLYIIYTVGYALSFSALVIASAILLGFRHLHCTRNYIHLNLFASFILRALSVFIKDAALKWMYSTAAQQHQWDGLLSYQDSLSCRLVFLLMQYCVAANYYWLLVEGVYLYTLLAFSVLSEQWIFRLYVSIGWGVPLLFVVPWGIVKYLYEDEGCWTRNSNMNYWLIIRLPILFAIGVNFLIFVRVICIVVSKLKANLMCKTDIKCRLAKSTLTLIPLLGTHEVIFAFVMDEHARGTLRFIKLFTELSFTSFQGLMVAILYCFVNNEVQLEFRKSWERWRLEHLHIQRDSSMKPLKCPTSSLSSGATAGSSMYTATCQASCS
T2 sequence (P47871 26-477): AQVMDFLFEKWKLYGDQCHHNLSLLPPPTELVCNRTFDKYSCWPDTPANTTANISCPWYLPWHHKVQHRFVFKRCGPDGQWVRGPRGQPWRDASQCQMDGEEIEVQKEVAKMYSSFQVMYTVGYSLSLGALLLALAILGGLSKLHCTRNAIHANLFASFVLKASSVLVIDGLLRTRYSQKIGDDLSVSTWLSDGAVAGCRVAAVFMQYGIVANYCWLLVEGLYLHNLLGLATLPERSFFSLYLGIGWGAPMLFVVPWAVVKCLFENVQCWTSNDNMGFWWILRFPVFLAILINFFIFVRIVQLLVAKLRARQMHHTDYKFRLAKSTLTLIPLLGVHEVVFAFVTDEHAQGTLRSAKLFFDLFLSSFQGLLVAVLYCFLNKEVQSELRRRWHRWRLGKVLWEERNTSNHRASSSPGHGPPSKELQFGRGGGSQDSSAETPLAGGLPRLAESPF

Row | Compound | EC50 (Human GIPr) | EC50 (Human GlucR) [nM] | EC50 (Human GLP1R) [nM]
1 | CCCCCCCCCCCCCCCC(=O)NCCCCCC(=O)NCCCC[C@H](NC(=O)[C@H](CO)NC(=O)[C@H](CC(=O)O)NC(=O)[C@H](CC(C)C)NC(=O)[C@H](Cc1ccc(O)cc1)NC(=O)[C@H](CCC(=O)O)NC(=O)[C@H](CO)NC(=O)[C@H](Cc1ccc(O)cc1)NC(=O)[C@H](CC(=O)O)NC(=O)[C@H](CO)NC(=O)[C@@H](NC(=O)[C@H](Cc1ccccc1)NC(=O)[C@@H](NC(=O)CNC(=O)[C@H](CCC(N)=O)NC(=O)CNC(=O)[C@@H](N)Cc1c[nH]cn1)[C@@H](C)O)[C@@H](C)O)C(=O)N[C@@H](CCCNC(=N)N)C(=O)N[C@@H](C)C(=O)N[C@@H](CCCNC(=N)N)C(=O)N[C@@H](CC(=O)O)C(=O)N[C@@H](Cc1ccccc1)C(=O)N[C@H](C(=O)N[C@@H](C)C(=O)N[C@@H](Cc1c[nH]c2ccccc12)C(=O)N[C@@H](CC(C)C)C(=O)N[C@@H](CCC(=O)O)C(=O)N[C@@H](CCCNC(=N)N)C(=O)NCC(=O)NCC(N)=O)C(C)C [g684] (H-HGQGTFTSDYSEYLDSK([Ahx-Palmitoyl])RARDFVAWLERGG-NH2; N-terminus assumed) | 146 nM | 0.164 | 0.0151
2 | CCCCCCCCCCCCCCCC(=O)N[C@@H](CCC(=O)NCCCC[C@H](NC(=O)[C@H](CO)NC(=O)[C@H](CC(=O)O)NC(=O)[C@H](CC(C)C)NC(=O)[C@H](Cc1ccc(O)cc1)NC(=O)[C@H](CCC(=O)O)NC(=O)[C@H](CO)NC(=O)[C@H](Cc1ccc(O)cc1)NC(=O)[C@H](CC(=O)O)NC(=O)[C@H](CO)NC(=O)[C@@H](NC(=O)[C@H](Cc1ccccc1)NC(=O)[C@@H](NC(=O)CNC(=O)[C@H](CCC(N)=O)NC(=O)CNC(=O)[C@@H](N)Cc1c[nH]cn1)[C@@H](C)O)[C@@H](C)O)C(=O)N[C@@H](CCCNC(=N)N)C(=O)N[C@@H](C)C(=O)N[C@@H](CCCNC(=N)N)C(=O)N[C@@H](CC(=O)O)C(=O)N[C@@H](Cc1ccccc1)C(=O)N[C@H](C(=O)N[C@@H](C)C(=O)N[C@@H](Cc1c[nH]c2ccccc12)C(=O)N[C@@H](CC(C)C)C(=O)N[C@@H](CCC(=O)O)C(=O)N[C@@H](CCCNC(=N)N)C(=O)NCC(=O)NCC(N)=O)C(C)C)C(=O)O [g721] (H-HGQGTFTSDYSEYLDSK([γGlu-Palmitoyl])RARDFVAWLERGG-NH2; N-terminus assumed) | 979 nM | 3.23 | 0.411
3 | CCCCCCCCCCCCCCCC(=O)N[C@@H](CCC(=O)NCCCC[C@H](NC(=O)[C@H](CO)NC(=O)[C@H](CC(=O)O)NC(=O)[C@H](CC(C)C)NC(=O)[C@H](Cc1ccc(O)cc1)NC(=O)[C@H](CCC(=O)O)NC(=O)[C@H](CO)NC(=O)[C@H](Cc1ccc(O)cc1)NC(=O)[C@H](CC(=O)O)NC(=O)[C@H](CO)NC(=O)[C@@H](NC(=O)[C@H](Cc1ccccc1)NC(=O)[C@@H](NC(=O)CNC(=O)[C@H](CCC(N)=O)NC(=O)[C@H](CO)NC(=O)[C@@H](N)Cc1c[nH]cn1)[C@@H](C)O)[C@@H](C)O)C(=O)N[C@@H](CCCNC(=N)N)C(=O)N[C@@H](C)C(=O)N[C@@H](CCCNC(=N)N)C(=O)N[C@@H](CC(=O)O)C(=O)N[C@@H](Cc1ccccc1)C(=O)N[C@H](C(=O)N[C@@H](C)C(=O)N[C@@H](Cc1c[nH]c2ccccc12)C(=O)N[C@@H](CC(C)C)C(=O)N[C@@H](CCC(=O)O)C(=O)N[C@@H](C)C(=O)NCC(=O)NCC(N)=O)C(C)C)C(=O)O [g837] (H-HSQGTFTSDYSEYLDSK([γGlu-Palmitoyl])RARDFVAWLEAGG-NH2; N-terminus assumed) | 114 nM | 0.213 | 0.467
4 | CCCCCCCCCCCCCCCC(=O)N[C@@H](CCC(=O)NCCCC[C@H](NC(=O)[C@H](CCCNC(=N)N)NC(=O)[C@H](CO)NC(=O)[C@H](Cc1ccc(O)cc1)NC(=O)[C@H](CC(=O)O)NC(=O)[C@H](CO)NC(=O)[C@@H](NC(=O)[C@H](Cc1ccccc1)NC(=O)[C@@H](NC(=O)CNC(=O)[C@H](CCC(N)=O)NC(=O)[C@H](CO)NC(=O)[C@@H](N)Cc1c[nH]cn1)[C@@H](C)O)[C@@H](C)O)C(=O)N[C@@H](CC(C)C)C(=O)N[C@@H](CC(=O)O)C(=O)N[C@@H](CO)C(=O)N[C@@H](CCC(=O)O)C(=O)N[C@@H](CCCNC(=N)N)C(=O)N[C@@H](C)C(=O)N[C@@H](CCCNC(=N)N)C(=O)N[C@@H](CC(=O)O)C(=O)N[C@@H](Cc1ccccc1)C(=O)N[C@H](C(=O)N[C@@H](C)C(=O)N[C@@H](Cc1c[nH]c2ccccc12)C(=O)N[C@@H](CC(C)C)C(=O)N[C@H](C(=O)N[C@@H](C)C(=O)NCC(=O)NCC(N)=O)C(C)C)C(C)C)C(=O)O [g820] (H-HSQGTFTSDYSRK([γGlu-Palmitoyl])LDSERARDFVAWLVAGG-NH2; N-terminus assumed) | 71.1 nM | 0.0117 | 0.0339

Stronger by EC50 (Human GlucR), values ahead:

Row | EC50 (Human GIPr) | EC50 (Human GlucR) [nM] | EC50 (Human GLP1R) [nM] | Compound
5 | 58 nM | 0.00423 | 0.0293 | CCCCCCCCCCCCCCCC(=O)NCCCCCC(=O)NCCCC[C@H](NC(=O)[C@H](CO)NC(=O)[C@H](CC(=O)O)NC(=O)[C@H](CC(C)C)NC(=O)[C@H](Cc1ccc(O)cc1)NC(=O)[C@H](CCC(=O)O)NC(=O)[C@H](CO)NC(=O)[C@H](Cc1ccc(O)cc1)NC(=O)[C@H](CC(=O)O)NC(=O)[C@H](CO)NC(=O)[C@@H](NC(=O)[C@H](Cc1ccccc1)NC(=O)[C@@H](NC(=O)CNC(=O)[C@H](CCC(N)=O)NC(=O)[C@H](CO)NC(=O)[C@@H](N)Cc1c[nH]cn1)[C@@H](C)O)[C@@H](C)O)C(=O)N[C@@H](CCCNC(=N)N)C(=O)N[C@@H](C)C(=O)N[C@@H](CCCNC(=N)N)C(=O)N[C@@H](CC(=O)O)C(=O)N[C@@H](Cc1ccccc1)C(=O)N[C@H](C(=O)N[C@@H](C)C(=O)N[C@@H](Cc1c[nH]c2ccccc12)C(=O)N[C@@H](CC(C)C)C(=O)N[C@@H](CCC(=O)O)C(=O)N[C@@H](CCCNC(=N)N)C(=O)NCC(=O)NCC(=O)O)C(C)C [g826] (H-HSQGTFTSDYSEYLDSK([Ahx-Palmitoyl])RARDFVAWLERGG-OH; N-terminus assumed)
6 | 124 nM and 82.8 nM | 0.00547 | 0.0666 | CCCCCCCCCCCCCCCC(=O)N[C@@H](CCC(=O)NCCCC[C@H](NC(=O)[C@H](CO)NC(=O)[C@H](CC(=O)O)NC(=O)[C@H](CC(C)C)NC(=O)[C@H](Cc1ccc(O)cc1)NC(=O)[C@H](CCCCN)NC(=O)[C@H](CO)NC(=O)[C@H](Cc1ccc(O)cc1)NC(=O)[C@H](CC(=O)O)NC(=O)[C@H](CO)NC(=O)[C@@H](NC(=O)[C@H](Cc1ccccc1)NC(=O)[C@@H](NC(=O)CNC(=O)[C@H](CCC(N)=O)NC(=O)[C@H](CO)NC(=O)[C@@H](N)Cc1c[nH]cn1)[C@@H](C)O)[C@@H](C)O)C(=O)N[C@@H](CCCNC(=N)N)C(=O)N[C@@H](C)C(=O)N[C@@H](CCC(N)=O)C(=O)N[C@@H](CC(=O)O)C(=O)N[C@@H](Cc1ccccc1)C(=O)N[C@H](C(=O)N[C@@H](CCC(=O)O)C(=O)N[C@@H](Cc1c[nH]c2ccccc12)C(=O)N[C@@H](CC(C)C)C(=O)N[C@H](C(=O)N[C@@H](C)C(=O)NCC(=O)NCC(N)=O)C(C)C)C(C)C)C(=O)O [g600] (H-HSQGTFTSDYSKYLDSK([γGlu-Palmitoyl])RAQDFVEWLVAGG-NH2; N-terminus assumed)
